According to patent US8470968B2, “SPARC-derived tumor rejection antigenic peptides and medicaments comprising the same” (Onco Therapy Science, Inc., priority 2006, dated 2013):
Ends that are not written are not given here.

Columns and labels:
Format in all cases: cell-based, mouse
[1] = test system: T2K^d cells loaded with SPARC K^d peptide; test: Cr-release assay of peptide-induced killer T cells on peptide-loaded T2K^d cells; details: T2K^d cells loaded with the SPARC K^d peptide; 4 hours co-culture; CTL from BM-DC-immunized BALB/c mice
Experimental: (§1) Bone marrow-derived dendritic cells (BM-DC) were induced from bone marrow cells derived from BALBc bone marrow by using GM-CSF as described previously by us (Nakatsura, T et al., Clin Cancer Res 10, 8630-8640, 2004). Thus the obtained BM-DC were cultured with a mixture of the 4 types of peptides selected as described above at a concentration of 10 μM for 2 hours, and the peptide-pulsed BM-DC (5×10^5 cells) were then intraperitoneally administered to each mouse. After an interval of 1 week, the same peptide-pulsed BM-DC were administered to the mouse twice, so that the mouse was strongly immunized. Thereafter, the spleen cells of the mouse were recovered and induction of killer T cells was evaluated. In order to strictly analyze induction of killer T cells derived from CD8^+ T cells, after collection of the spleen, CD4^+ T cells were eliminated from the collected spleen cells, using MACS beads, and the remaining cells were then used for analysis.
(§2) The following protocols were used for generation and characterization of SPARC-specific killer T cells (The day of recovering the spleen cells from the immunized mouse was defined as Day 0.) • Day-21 (1) GM-CSF was added to the bone marrow cells of a BALB/c mouse, so as to start induction of bone marrow-derived dendritic cells (hereinafter referred to as BM-DC). • Day-14 (2) A mixture of the 4 types of SPARC peptides was added to the induced BM-DC, and 2 hours later, 5×10^5 cells were intraperitoneally administered to each mouse. • Steps (1) and (2) were repeated twice every other week. • Day 0 The spleen cells of the immunized BALB/c mouse were recovered. The cells were co-cultured with BM-DC prepulsed with each SPARC peptide for 2 hours. […]
(§3) The cytotoxic activity of the induced SPARC-specific killer T cells on tumor cells was analyzed as follows. […] Thereafter, a culture supernatant was recovered, and the amount of radioactive Cr released from dead cells was quantified, so that cytotoxic activity was detected.

Meth A cell line = test: Cr-release assay of peptide-induced killer T cells on Meth A cells; details: spontaneously expressing SPARC, 4 hours co-culture
Experimental: as §1, §2, §3

BALB/3T3 cell line = test: Cr-release assay of peptide-induced killer T cells on BALB/3T3 cells; details: BALB/3T3, spontaneously expressing SPARC; 4 hours co-culture
Experimental: as §1, §2, §3

Measured: Cytotoxicity of induced killer T cells (Cr release)

EFPLRMRDWL [SPARC- K^d-3, EFPLRMRDWL]
cytotoxicity was observed: all assays above

DYIGPCKYI [SPARC- K^d-1, DYIGPCKYI]
cytotoxicity was observed: all assays above

MYIFPVHWQF [SPARC- K^d-4, MYIFPVHWQF]
cytotoxicity was observed: all assays above
